Laboratory results taken from patent publication US20050192182A1, “Herbicidal mixtures based on substituted aryl ketones” (priority 2001, published 2005).

Columns and labels:
ELTTP = assay: Test in transplanted paddy rice (greenhouse), water-surface application; assay type: in vivo, Elatine; conditions: 3 weeks after application
Description: (§1) Test in Transplanted Paddy Rice
(§2) To produce a preparation of active compound, 1 part by weight of an active compound combination according to the invention is mixed with the stated amount of solvent and, after addition of the stated amount of emulsifier, diluted with water to the desired concentration.
(§3) Vessels for planting (500 cm^2) are filled with soil from a rice field. In each case 3 rice plants (cultivar: Nipponbare, 2-3-leaf stage, height: about 15 cm) are planted into the center of the vessels for planting. Seeds of Cyperus, Echinochloa, Lindernia, Rotala and Elatine are sown into the same vessels for planting. The soil in the vessels is kept moist. After two days, each vessel for planting is flooded to a water depth of 2-3 cm.
(§4) Five days after the transplanting of the rice plants, the amount of active compound in the preparation described above is applied to the surface of the water in the vessels for planting using a pipette. The water depth in the vessels for planting is kept at 2-3 cm.
(§5) 3 weeks after the application of active compound, the efficacy is rated in % damage in comparison to the untreated control.
(§6) The figures denote • 0% no effect/damage (like untreated control) • 100% total destruction

ROTIN = assay: as above; assay type: in vivo, Rotala; conditions: 3 weeks after application
Description: as §1, §2, §3, §4, §5, §6

LIDPY = assay: as above; assay type: in vivo, Lindernia; conditions: 3 weeks after application
Description: as §1, §2, §3, §4, §5, §6

Chenopodium album = assay: Post-emergence greenhouse spray test; assay type: in vivo; conditions: about 3 weeks
Method: (§7) The required amount of active compound or formulation is dissolved in a few milliliters (2-3 ml) of the solvent (acetone or DMF), an emulsifier (1 ml) is added, if required, and the mixture is diluted with water to the desired concentration.
(§8) Mixtures are prepared by mixing a predetermined dissolved amount of the first active compound with the required amount of the second active compound (and, if desired, with additional active compounds/formulations or other ingredients), and then diluting the mixture with water to the desired concentration.
(§9) In pre- and post-emergence experiments, a surfactant (Renex 36) is usually added, at a concentration of 0.1%, to the spray solution.
(§10) The amount of active compound or formulation is chosen such that the desired application rate per ha is achieved.
(§11) Test plants are grown under controlled conditions (temperature and light). Once the plants have reached a height of 5-15 cm, the test compound or the combination of test compounds is applied by spraying such that the particular amounts of active compound desired are applied per unit area. The concentration of the spray liquor is chosen such that the desired amounts of active compound are in each case applied in 500 1 of water/ha.
(§12) After the spray application, the vessels containing the plants are stored in a greenhouse under constant conditions with respect to light and temperature.
(§13) After about 3 weeks, the degree of damage to the plants is rated in % damage in comparison to the development of the untreated control.
(§14) The figures denote: • 0%=no damage (like untreated control) • 100%=total destruction/damage • a.i.=active ingredient Flufenacet Tested as 60 WG • (I-31)/(I-34) tested as active compounds • * values calculated according to Colby

Amaranthus retroflexus = assay: Post-emergence greenhouse spray test; assay type: in vivo; conditions: about 3 weeks
Method: as §7, §8, §9, §10, §11, §12, §13, §14

Solanum nigrum = assay: Post-emergence greenhouse spray test; assay type: in vivo; conditions: about 3 weeks
Method: as §7, §8, §9, §10, §11, §12, §13, §14

Abutilon theophrasti = assay: Post-emergence greenhouse spray test; assay type: in vivo; conditions: about 3 weeks
Method: as §7, §8, §9, §10, §11, §12, §13, §14

Digitaria sanguinalis = assay: Post-emergence greenhouse spray test; assay type: in vivo; conditions: about 3 weeks
Method: as §7, §8, §9, §10, §11, §12, §13, §14

CYPDI = assay: Test in transplanted paddy rice (greenhouse), water-surface application; assay type: in vivo, Cyperus; conditions: 135 g/ha, 3 weeks after application
Description: as §1, §2, §3, §4, §5, §6

ECHSS = assay: as above; assay type: in vivo, Echinochloa; conditions: 135 g/ha, 3 weeks after application
Description: as §1, §2, §3, §4, §5, §6

In the case of `Cn1nnn(CCOc2c(Cl)ccc(C(=O)C3C(=O)CCCC3=O)c2Cl)c1=O` [Example I-22, 2-[2,4-dichloro-3-[2-(4-methyl-5-oxo-4,5-dihydro-1H-tetrazol-1-yl)-ethoxy]-benzoyl]-1,3-cyclohexanedione], the “efficacy in % damage, Compound (I) alone” value (ELTTP; 30 g/ha) is reported as 60%, the “efficacy in % damage, Compound (I) alone” value (ROTIN; 30 g/ha) is reported as 70% and the “efficacy in % damage, Compound (I) alone” value (LIDPY; 30 g/ha) is reported as 70%.
`O=C1CC[C@@H](COc2c(Br)ccc(C(=O)C3C(=O)CCCC3=O)c2Br)N1` [Example I-31, (5S)-5-[[2,6-dibromo-3-[(2,6-dioxo-1-cyclohexyl)-carbonyl]-phenoxy]-methyl]-2-pyrrolidinone] was tested, and the “Chenopodium album observed (% damage)” value (Chenopodium album; 15 g of ai/ha) was 0%, the “Chenopodium album observed (% damage)” value (Chenopodium album; 30 g of ai/ha) was 20% and the “Amaranthus retroflexus observed (% damage)” value (Amaranthus retroflexus; 8 g of ai/ha) was 0%. For the same compound, the “Amaranthus retroflexus observed (% damage)” value (Amaranthus retroflexus; 15 g of ai/ha) was 0%, the “Amaranthus retroflexus observed (% damage)” value (Amaranthus retroflexus; 30 g of ai/ha) was 0% and the “Solanum nigrum observed (% damage)” value (Solanum nigrum; 30 g of ai/ha) was 10%. The “Abutilon theophrasti observed (% damage)” value (Abutilon theophrasti; 15 g of ai/ha) was 0% and the “Abutilon theophrasti observed (% damage)” value (Abutilon theophrasti; 30 g of ai/ha) was 10%.
`O=C1CC[C@@H](COc2c(Cl)ccc(C(=O)C3C(=O)CCCC3=O)c2Cl)N1` [Example I-34, (5S)-5-[[2,6-dichloro-3-[(2,6-dioxo-1-cyclohexyl)-carbonyl]-phenoxy]-methyl]-2-pyrrolidinone] was tested, and the “Digitaria sanguinalis observed (% damage)” value (Digitaria sanguinalis; 15 g of ai/ha) was 0%, the “Digitaria sanguinalis observed (% damage)” value (Digitaria sanguinalis; 30 g of ai/ha) was 0% and the “Chenopodium album observed (% damage)” value (Chenopodium album; 15 g of ai/ha) was 90%. For the same compound, the “Chenopodium album observed (% damage)” value (Chenopodium album; 30 g of ai/ha) was 90%, the “Amaranthus retroflexus observed (% damage)” value (Amaranthus retroflexus; 15 g of ai/ha) was 0% and the “Amaranthus retroflexus observed (% damage)” value (Amaranthus retroflexus; 30 g of ai/ha) was 0%.
In the case of `CC(C)N(C(=O)COc1nnc(C(F)(F)F)s1)c1ccc(F)cc1` [Flufenacet, N-(4-fluoro-phenyl)-N-i-propyl-2-(5-trifluoromethyl-1,3,4-thiadiazol-2-yl-oxy)-acetamide, reference compound], the “Digitaria sanguinalis observed (% damage)” value (Digitaria sanguinalis; 125 g of ai/ha) is reported as 70%, the “Chenopodium album observed (% damage)” value (Chenopodium album; 125 g of ai/ha) is reported as 0% and the “Amaranthus retroflexus observed (% damage)” value (Amaranthus retroflexus; 125 g of ai/ha) is reported as 60%. The “Solanum nigrum observed (% damage)” value (Solanum nigrum; 125 g of ai/ha) was 30% and the “Abutilon theophrasti observed (% damage)” value (Abutilon theophrasti; 125 g of ai/ha) was 0%.
With `CCN(C(=O)n1nnn(-c2ccccc2Cl)c1=O)C1CCCCC1` [fentrazamide, 4-(2-chloro-phenyl)-N-cyclohexyl-N-ethyl-4,5-dihydro-5-oxo-1H-tetrazole-1-carboxamide, reference compound] the “efficacy in % damage, Compound (II) alone” value (CYPDI) was 60%, the “efficacy in % damage, Compound (II) alone” value (ECHSS) was 70% and the “efficacy in % damage, Compound (II) alone” value (ELTTP; 135 g/ha) was 60%. For the same compound, the “efficacy in % damage, Compound (II) alone” value (ROTIN; 135 g/ha) was 60% and the “efficacy in % damage, Compound (II) alone” value (LIDPY; 135 g/ha) was 60%.
